Results reported in the Kinase Knowledgebase extract (Sharma et al. 2016).

How the values were obtained:
[1] = target: MAPK14 (human) (UniProt Q16539); experiment: Enzyme Assay; conditions: for activity: 10.0 µM
[2] = tested on: EGFR (human), P00533 [S752-I759del]; conditions: 10.0 µM
[3] = tested on: EGFR (human), P00533 [L747-S752del, P753S]; conditions: 10.0 µM
[4] = tested on: PIK3CA (human), P42336 [I800L]; experiment: Enzyme Assay; conditions: 10.0 µM
[5] = tested on: PIK3CA (human), P42336 [H1047Y]; experiment: Enzyme Assay; conditions: 10.0 µM
[6] = target: PIK3CA (human) (UniProt P42336); experiment: Enzyme Assay; conditions: 10.0 µM
[7] = target: CDK2 (human) (UniProt P24941); experiment: Enzyme Assay; conditions: for activity: 10.0 µM
[8] = target: PIK3CG (human) (UniProt P48736); experiment: Enzyme Assay; conditions: 10.0 µM
PIK3CG (human), sequence (P48736 whole entry, looked up): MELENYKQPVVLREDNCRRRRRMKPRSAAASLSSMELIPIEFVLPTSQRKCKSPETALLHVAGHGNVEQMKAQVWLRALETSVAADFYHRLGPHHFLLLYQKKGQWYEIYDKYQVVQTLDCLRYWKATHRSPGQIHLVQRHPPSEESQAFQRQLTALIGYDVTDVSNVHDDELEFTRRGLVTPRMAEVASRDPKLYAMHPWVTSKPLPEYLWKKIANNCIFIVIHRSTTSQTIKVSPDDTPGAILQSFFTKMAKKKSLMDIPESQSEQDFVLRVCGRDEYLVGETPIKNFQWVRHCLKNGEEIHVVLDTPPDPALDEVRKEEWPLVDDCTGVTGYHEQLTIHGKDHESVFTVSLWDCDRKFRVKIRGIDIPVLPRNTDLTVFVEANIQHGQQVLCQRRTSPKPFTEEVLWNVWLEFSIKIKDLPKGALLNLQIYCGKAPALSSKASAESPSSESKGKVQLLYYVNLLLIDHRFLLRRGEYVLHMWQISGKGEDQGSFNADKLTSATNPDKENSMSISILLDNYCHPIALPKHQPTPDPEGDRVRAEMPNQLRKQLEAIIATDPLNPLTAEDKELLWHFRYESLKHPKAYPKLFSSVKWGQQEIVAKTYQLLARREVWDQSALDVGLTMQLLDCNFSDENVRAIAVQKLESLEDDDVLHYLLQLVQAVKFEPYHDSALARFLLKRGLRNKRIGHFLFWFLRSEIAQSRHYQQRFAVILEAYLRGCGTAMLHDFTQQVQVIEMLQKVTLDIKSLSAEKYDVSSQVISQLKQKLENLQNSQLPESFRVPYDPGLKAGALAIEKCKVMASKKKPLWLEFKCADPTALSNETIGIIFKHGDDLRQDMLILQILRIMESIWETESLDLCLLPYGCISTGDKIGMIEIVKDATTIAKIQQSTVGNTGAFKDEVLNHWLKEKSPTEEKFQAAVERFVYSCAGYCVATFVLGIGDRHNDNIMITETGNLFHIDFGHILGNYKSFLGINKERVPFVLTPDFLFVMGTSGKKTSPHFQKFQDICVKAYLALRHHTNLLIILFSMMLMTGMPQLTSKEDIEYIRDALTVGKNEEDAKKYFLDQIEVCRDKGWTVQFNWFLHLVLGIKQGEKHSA

[9] = tested on: PIK3CA (human), P42336 [Q546K]; experiment: Enzyme Assay; conditions: 10.0 µM
[10] = tested on: PIK3CA (human), P42336 [E545A]; experiment: Enzyme Assay; conditions: 10.0 µM
[11] = tested on: PIK3CA (human), P42336 [M1043I]; experiment: Enzyme Assay; conditions: 10.0 µM
[12] = tested on: PIK3CA (human), P42336 [E542K]; experiment: Enzyme Assay; conditions: 10.0 µM
PIK3CA (human), P42336 [E542K], sequence (P42336 whole entry E542K, looked up): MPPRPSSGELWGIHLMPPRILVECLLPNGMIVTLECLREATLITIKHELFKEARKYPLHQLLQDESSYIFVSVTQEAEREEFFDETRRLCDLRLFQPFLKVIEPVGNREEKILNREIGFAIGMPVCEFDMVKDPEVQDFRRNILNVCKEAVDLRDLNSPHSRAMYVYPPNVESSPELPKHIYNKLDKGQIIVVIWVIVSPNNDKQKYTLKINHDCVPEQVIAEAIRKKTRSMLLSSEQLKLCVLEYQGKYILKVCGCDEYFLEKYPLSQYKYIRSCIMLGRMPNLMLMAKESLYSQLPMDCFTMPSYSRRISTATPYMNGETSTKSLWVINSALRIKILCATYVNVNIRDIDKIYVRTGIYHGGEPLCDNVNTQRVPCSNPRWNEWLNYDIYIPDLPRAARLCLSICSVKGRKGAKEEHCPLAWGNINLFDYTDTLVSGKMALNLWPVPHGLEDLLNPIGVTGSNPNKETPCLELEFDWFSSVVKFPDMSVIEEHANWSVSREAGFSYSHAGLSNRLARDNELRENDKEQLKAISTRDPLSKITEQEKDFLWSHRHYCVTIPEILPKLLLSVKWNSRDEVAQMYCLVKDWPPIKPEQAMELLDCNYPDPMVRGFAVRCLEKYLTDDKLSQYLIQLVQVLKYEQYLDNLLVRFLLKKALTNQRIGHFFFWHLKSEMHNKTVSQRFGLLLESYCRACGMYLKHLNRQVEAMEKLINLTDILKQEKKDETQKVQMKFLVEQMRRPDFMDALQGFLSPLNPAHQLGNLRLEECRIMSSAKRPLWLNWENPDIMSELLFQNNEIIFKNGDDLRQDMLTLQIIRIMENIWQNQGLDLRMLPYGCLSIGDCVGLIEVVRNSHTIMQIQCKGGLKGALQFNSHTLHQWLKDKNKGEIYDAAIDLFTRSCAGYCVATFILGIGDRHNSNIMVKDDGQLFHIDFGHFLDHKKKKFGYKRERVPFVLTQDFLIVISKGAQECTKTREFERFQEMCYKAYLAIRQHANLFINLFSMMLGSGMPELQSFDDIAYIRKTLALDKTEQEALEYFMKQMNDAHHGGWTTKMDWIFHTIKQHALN

[13] = tested on: PIK3CA (human), P42336 [E545K]; experiment: Enzyme Assay; conditions: 10.0 µM
[14] = target: PIK3CB (Human) (UniProt P42338); experiment: Enzyme Assay; conditions: 10.0 µM
PIK3CB (Human), sequence (P42338 whole entry, looked up): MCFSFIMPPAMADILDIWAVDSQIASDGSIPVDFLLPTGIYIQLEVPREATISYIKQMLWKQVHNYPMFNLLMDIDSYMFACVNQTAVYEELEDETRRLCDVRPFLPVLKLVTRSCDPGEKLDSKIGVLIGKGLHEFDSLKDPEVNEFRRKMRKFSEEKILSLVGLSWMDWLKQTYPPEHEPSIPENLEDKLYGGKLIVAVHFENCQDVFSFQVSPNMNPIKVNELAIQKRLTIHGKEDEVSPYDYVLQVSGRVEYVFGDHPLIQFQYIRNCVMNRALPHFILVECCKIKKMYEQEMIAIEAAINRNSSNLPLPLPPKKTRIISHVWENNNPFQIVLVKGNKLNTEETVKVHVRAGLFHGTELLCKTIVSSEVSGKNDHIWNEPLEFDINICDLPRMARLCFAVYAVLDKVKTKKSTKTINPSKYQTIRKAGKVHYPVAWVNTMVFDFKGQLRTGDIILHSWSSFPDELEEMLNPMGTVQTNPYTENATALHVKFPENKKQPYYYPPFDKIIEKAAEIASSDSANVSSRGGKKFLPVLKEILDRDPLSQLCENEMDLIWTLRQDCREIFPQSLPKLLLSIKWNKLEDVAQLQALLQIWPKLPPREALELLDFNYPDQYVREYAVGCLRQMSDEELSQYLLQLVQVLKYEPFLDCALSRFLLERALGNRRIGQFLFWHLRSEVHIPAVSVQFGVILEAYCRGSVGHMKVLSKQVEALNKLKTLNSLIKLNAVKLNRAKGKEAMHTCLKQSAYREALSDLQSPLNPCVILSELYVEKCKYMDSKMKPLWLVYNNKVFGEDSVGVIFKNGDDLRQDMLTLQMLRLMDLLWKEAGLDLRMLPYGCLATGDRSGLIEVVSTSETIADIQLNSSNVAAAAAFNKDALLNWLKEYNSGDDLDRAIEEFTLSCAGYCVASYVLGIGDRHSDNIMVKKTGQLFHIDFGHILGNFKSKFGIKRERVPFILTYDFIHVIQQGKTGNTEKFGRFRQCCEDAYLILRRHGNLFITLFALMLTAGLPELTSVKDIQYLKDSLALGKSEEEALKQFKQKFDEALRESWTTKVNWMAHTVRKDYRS

[15] = target: ROCK2 (human) (UniProt O75116); experiment: Enzyme Assay; conditions: 10.0 µM
[16] = tested on: PIK3CA (human), P42336 [C420R]; experiment: Enzyme Assay; conditions: 10.0 µM
PIK3CA (human), P42336 [C420R], sequence (P42336 whole entry C420R, looked up): as the sequence (P42336 whole entry E542K, looked up) above, with C420R, K542E counted along it

[17] = target: PIK3CD (Human) (UniProt O00329); experiment: Enzyme Assay; conditions: 10.0 µM
[18] = tested on: PIK3CA (human), P42336 [H1047L]; experiment: Enzyme Assay; conditions: 10.0 µM
[19] = tested on: EGFR (human), P00533 [E746-A750del]; conditions: 10.0 µM
[20] = tested on: EGFR (human), P00533 [G719C]; conditions: 10.0 µM
[21] = tested on: EGFR (human), P00533 [T790M]; conditions: 10.0 µM
[22] = tested on: EGFR (human), P00533 [L747-E749del, A750P]; conditions: 10.0 µM
[23] = tested on: EGFR (Human), P00533 [T790M/L858R]; conditions: 10.0 µM
[24] = tested on: EGFR (human), P00533 [L861Q]; conditions: 10.0 µM
[25] = tested on: EGFR (human), P00533 [G719S]; conditions: 10.0 µM
[26] = tested on: EGFR (human), P00533 [L747-T751del,Sins]; conditions: 10.0 µM
[27] = tested on: EGFR (human), P00533 [L858R]; conditions: 10.0 µM
[28] = target: EGFR (human) (UniProt P00533); conditions: for activity: 10.0 µM

MAPK14 (human), sequence (Q16539 whole entry, looked up): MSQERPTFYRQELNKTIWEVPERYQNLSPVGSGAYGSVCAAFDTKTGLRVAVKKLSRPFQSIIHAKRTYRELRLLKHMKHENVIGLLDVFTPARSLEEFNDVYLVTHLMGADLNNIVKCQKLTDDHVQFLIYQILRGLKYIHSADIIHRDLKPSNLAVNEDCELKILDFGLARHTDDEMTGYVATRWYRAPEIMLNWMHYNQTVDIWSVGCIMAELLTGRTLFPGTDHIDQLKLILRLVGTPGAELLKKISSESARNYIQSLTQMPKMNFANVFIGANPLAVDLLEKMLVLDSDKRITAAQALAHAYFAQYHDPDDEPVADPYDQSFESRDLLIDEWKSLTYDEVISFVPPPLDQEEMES

How did the IC50 [1] turn out when `Cc1csc(-c2nnc(Nc3ccc(Oc4ncccc4-c4ccnc(N)n4)cc3)c3ccccc23)c1` was run?
Its IC50 is 0.053 µM.

`Cc1ccc(NC(=O)c2cccc(C(C)(C)C#N)c2)cc1Nc1ccc2ncn(C)c(=O)c2c1` was tested. Which activity [2] did it give?
The activity was 17%.

What about the activity [3] of the same compound?
The activity was 19%.

And the activity [1]?
Its activity is 0%.

And the activity [4]?
The activity was 100%.

And the activity [5]?
The activity was 100%.

And the activity [6]?
The activity was 100%.

And the activity [7]?
Its activity is 100%.

What about the activity [8] of the same compound?
The activity was 99%.

What about the activity [9] of the same compound?
Its activity is 88%.

And the activity [10]?
The activity was 89%.

What about the activity [11] of the same compound?
The activity was 89%.

What about the activity [12] of the same compound?
Its activity is 100%.

What about the activity [13] of the same compound?
The activity was 100%.

And the activity [14]?
Its activity is 100%.

And the activity [15]?
Its activity is 80%.

And the activity [16]?
The activity was 100%.

What about the activity [17] of the same compound?
Its activity is 99%.

What about the activity [18] of the same compound?
Its activity is 100%.

And the activity [19]?
Its activity is 15%.

What about the activity [20] of the same compound?
Its activity is 49%.

What about the activity [21] of the same compound?
Its activity is 79%.

What about the activity [22] of the same compound?
Its activity is 11%.

And the activity [23]?
The activity was 99%.

And the activity [24]?
Its activity is 34%.

And the activity [25]?
Its activity is 37%.

What about the activity [26] of the same compound?
The activity was 14%.

What about the activity [27] of the same compound?
Its activity is 48%.

And the activity [28]?
The activity was 37%.

Which IC50 [7] does the source give for `O=C(Nc1ccc(OC(F)(F)F)cc1)c1sccc1NCc1ccnc2ccccc12` here?
The IC50 was over 10 µM.

What about the IC50 [28] of the same compound?
The IC50 was over 10 µM.

`Cc1ccc(C(=O)Nc2cccc(C(F)(F)F)c2)cc1Nc1nc(-c2cccnc2)nc2c1cnn2C` was tested. Which IC50 [28] did it give?
The IC50 was over 10 µM.

How did the activity [2] turn out when `COc1cc2c(Nc3ccc(NC(=O)c4ccccc4)cc3)ncnc2cc1OCCCN1CCOCC1` was run?
Its activity is 14%.

And the activity [3]?
The activity was 41%.

What about the activity [1] of the same compound?
Its activity is 100%.

What about the activity [4] of the same compound?
The activity was 100%.

And the activity [5]?
The activity was 24%.

And the activity [6]?
The activity was 100%.

What about the activity [7] of the same compound?
The activity was 82%.

And the activity [8]?
The activity was 100%.

What about the activity [9] of the same compound?
Its activity is 17%.

And the activity [10]?
Its activity is 19%.

And the activity [11]?
The activity was 99%.

What about the activity [12] of the same compound?
Its activity is 100%.

What about the activity [13] of the same compound?
Its activity is 98%.

And the activity [14]?
The activity was 81%.

And the activity [15]?
Its activity is 34%.

What about the activity [16] of the same compound?
Its activity is 68%.

And the activity [17]?
The activity was 100%.

What about the activity [18] of the same compound?
Its activity is 99%.

And the activity [19]?
Its activity is 36%.

What about the activity [20] of the same compound?
The activity was 0%.

What about the activity [21] of the same compound?
Its activity is 42%.

And the activity [22]?
The activity was 22%.

And the activity [23]?
The activity was 85%.

What about the activity [24] of the same compound?
Its activity is 6%.

What about the activity [25] of the same compound?
The activity was 0%.

What about the activity [26] of the same compound?
Its activity is 26%.

What about the activity [27] of the same compound?
The activity was 8%.

What about the activity [28] of the same compound?
The activity was 0%.
